In patent US10392391B2 (Vertex Pharmaceuticals Incorporated, priority 2012, dated 2019) one finds Ki data, which are given here for 13 compounds.

In the first experiment the target is ATR kinase (full-length ATR) (Homo sapiens (Human), UniProt Q13535). Put plainly: ATR inhibition assay (radioactive-phosphate incorporation).
Sequence of ATR kinase (full-length ATR) (Q13535 whole entry): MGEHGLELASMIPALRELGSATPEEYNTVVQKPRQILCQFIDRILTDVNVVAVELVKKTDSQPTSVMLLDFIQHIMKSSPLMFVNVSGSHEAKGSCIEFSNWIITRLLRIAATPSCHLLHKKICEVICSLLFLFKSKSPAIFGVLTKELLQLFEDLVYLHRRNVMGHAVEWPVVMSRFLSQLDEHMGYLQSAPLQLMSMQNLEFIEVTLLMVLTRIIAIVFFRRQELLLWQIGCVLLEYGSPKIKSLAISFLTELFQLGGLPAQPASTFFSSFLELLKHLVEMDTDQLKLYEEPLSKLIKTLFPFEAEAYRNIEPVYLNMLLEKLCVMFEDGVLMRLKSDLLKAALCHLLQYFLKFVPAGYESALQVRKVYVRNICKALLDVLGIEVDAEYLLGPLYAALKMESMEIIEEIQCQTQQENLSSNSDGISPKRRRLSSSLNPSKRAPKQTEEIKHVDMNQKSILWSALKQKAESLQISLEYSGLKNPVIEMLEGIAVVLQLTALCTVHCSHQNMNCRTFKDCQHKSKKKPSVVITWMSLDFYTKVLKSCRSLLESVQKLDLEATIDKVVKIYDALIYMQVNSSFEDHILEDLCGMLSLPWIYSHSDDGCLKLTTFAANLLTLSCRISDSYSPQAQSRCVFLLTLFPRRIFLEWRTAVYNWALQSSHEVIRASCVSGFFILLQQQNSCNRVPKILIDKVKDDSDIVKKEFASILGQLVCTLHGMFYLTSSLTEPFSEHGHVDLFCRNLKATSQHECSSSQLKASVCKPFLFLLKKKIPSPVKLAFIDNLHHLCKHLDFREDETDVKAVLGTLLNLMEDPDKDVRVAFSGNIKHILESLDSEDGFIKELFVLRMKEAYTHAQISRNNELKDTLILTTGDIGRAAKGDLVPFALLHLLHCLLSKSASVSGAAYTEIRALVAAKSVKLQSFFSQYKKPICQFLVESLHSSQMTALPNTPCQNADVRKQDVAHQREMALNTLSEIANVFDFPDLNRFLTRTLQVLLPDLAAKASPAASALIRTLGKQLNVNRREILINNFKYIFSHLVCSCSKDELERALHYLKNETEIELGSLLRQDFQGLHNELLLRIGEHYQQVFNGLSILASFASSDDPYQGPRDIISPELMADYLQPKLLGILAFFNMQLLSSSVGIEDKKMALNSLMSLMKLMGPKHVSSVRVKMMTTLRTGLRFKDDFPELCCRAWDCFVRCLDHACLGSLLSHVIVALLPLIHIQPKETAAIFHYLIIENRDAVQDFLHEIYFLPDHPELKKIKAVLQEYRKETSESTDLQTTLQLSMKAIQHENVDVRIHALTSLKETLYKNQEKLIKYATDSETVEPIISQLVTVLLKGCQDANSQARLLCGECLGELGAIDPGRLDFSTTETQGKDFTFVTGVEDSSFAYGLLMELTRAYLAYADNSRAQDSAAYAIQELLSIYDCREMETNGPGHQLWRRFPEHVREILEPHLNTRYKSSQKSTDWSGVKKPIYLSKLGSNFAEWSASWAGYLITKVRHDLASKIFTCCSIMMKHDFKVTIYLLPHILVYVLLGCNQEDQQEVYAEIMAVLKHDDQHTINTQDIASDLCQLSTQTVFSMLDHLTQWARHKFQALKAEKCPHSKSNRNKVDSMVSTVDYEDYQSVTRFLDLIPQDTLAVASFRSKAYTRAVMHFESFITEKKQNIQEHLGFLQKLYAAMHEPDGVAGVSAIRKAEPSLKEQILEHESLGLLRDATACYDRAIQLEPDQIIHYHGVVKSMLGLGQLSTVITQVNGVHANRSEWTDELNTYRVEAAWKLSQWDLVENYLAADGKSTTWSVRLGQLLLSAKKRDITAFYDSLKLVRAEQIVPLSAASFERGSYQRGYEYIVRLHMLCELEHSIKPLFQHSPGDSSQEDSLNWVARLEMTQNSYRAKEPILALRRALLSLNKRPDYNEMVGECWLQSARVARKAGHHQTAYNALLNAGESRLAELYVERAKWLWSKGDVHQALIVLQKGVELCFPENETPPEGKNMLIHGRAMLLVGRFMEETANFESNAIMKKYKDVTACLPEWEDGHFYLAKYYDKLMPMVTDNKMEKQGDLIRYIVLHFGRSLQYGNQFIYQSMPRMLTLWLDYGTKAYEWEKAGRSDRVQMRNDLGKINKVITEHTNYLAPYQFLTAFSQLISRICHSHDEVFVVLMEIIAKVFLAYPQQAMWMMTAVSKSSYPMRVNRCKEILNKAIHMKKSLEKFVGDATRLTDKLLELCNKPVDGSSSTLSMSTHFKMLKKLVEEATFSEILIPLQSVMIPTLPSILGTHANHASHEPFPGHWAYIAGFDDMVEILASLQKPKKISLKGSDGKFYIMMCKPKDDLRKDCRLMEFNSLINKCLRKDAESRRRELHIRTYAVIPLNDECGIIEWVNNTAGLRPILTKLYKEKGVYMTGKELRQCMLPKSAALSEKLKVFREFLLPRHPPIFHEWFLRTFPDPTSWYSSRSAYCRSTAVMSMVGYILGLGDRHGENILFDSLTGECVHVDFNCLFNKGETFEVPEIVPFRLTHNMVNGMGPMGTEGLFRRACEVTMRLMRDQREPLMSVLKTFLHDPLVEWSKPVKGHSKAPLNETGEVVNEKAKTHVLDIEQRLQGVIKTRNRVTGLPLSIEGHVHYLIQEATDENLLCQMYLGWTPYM
Settings: not given
The class given is biochemical. Summed up: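 Ki(app) was fitted by non-linear regression to background-corrected initial rates. Full-length ATR (5 nM) phosphorylated 800 μM peptide using 10 μM [γ-33P]ATP at 25° C in Tris/HCl pH 7.5 buffer with MgCl2, DTT and 7% DMSO. After 10-minute compound pre-incubation and 24-hour reaction, phosphocellulose filters were scintillation counted.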
As for `C[N+]1([O-])CCN(C(=O)C2CCN(c3c(F)cncc3NC(=O)c3c(N)nn4cc(F)cnc34)CC2)CC1` [I-G-95, 4-(1-(3-(2-amino-6-fluoropyrazolo[1,5-a]pyrimidine-3-carboxamido)-5-fluoropyridin-4-yl)piperidine-4-carbonyl)-1-methylpiperazine 1-oxide], the Ki was 0.01 to 1 µM. Turning to `CN1CCN(c2c(NC(=O)c3c(N)nn4cc(F)cnc34)cncc2C(F)F)CC1` [I-N-111, 2-amino-N-(5-(difluoromethyl)-4-(4-methylpiperazin-1-yl)pyridin-3-yl)-6-fluoropyrazolo[1,5-a]pyrimidine-3-carboxamide], the Ki is 1 to 5 µM.

Staying with this experiment, now noted: Ki(app), 5 nM full-length ATR, 10 μM ATP, 25° C.
On to `Nc1nn2cc(F)cnc2c1C(=O)Nc1cnccc1N1CCS(=O)(=O)CC1` [I-N-210, 2-amino-N-(4-(1,1-dioxidothiomorpholino)pyridin-3-yl)-6-fluoropyrazolo[1,5-a]pyrimidine-3-carboxamide], for which the Ki lay in the range of 0.01 to 1 µM. For `CS(=O)(=O)C1CCN(c2c(F)cncc2NC(=O)c2c(N)nn3cc(F)cnc23)CC1` [I-N-165, 2-amino-6-fluoro-N-(5-fluoro-4-(4-(methylsulfonyl)piperidin-1-yl)pyridin-3-yl)pyrazolo[1,5-a]pyrimidine-3-carboxamide], the Ki lay in the range of 0.01 to 1 µM.

`N#CCc1cnc2c(C(=O)Nc3cnccc3N3CCNCC3)c(N)nn2c1` [I-N-89, 2-amino-6-(cyanomethyl)-N-(4-(piperazin-1-yl)pyridin-3-yl)pyrazolo[1,5-a]pyrimidine-3-carboxamide]: the Ki fell in the range of 0.01 to 1 µM. With `CN1CCC(C(=O)N2CC=C(c3c(F)cncc3NC(=O)c3c(N)nn4cc(F)cnc34)CC2)CC1` [I-C-38, 2-amino-6-fluoro-N-(5-fluoro-1′-(1-methylpiperidine-4-carbonyl)-1′,2′,3′,6′-tetrahydro-[4,4′-bipyridin]-3-yl)pyrazolo[1,5-a]pyrimidine-3-carboxamide], the Ki was 0.01 to 1 µM.

For `COC(=O)N1CCN(c2c(F)cncc2NC(=O)c2c(N)nn3cc(F)cnc23)CC1` [I-N-261, methyl-4-(3-(2-amino-6-fluoropyrazolo[1,5-a]pyrimidine-3-carboxamido)-5-fluoropyridin-4-yl)piperazine-1-carboxylate], the Ki was in the range of 0.01 to 1 µM. The same measure, in the same setting: with `Cc1cncnc1-c1ccncc1NC(=O)c1c(N)nn2cc(F)cnc12` [I-C-67, 2-amino-6-fluoro-N-(4-(5-methylpyrimidin-4-yl)pyridin-3-yl)pyrazolo[1,5-a]pyrimidine-3-carboxamide] the figure was 0.01 to 1 µM; with `CN(C)C1CN(C2CCN(c3ccncc3NC(=O)c3c(N)nn4cc(Cl)cnc34)CC2)C1` [I-N-94, 2-amino-6-chloro-N-(4-(4-(3-(dimethylamino)azetidin-1-yl)piperidin-1-yl)pyridin-3-yl)pyrazolo[1,5-a]pyrimidine-3-carboxamide], 0.01 to 1 µM; with `CC1CN(C)CCN1c1ccncc1NC(=O)c1c(N)nn2cc(Cl)cnc12` (stereo not shown) [I-N-72, 2-amino-6-chloro-N-(4-(2,4-dimethylpiperazin-1-yl)pyridin-3-yl)pyrazolo[1,5-a]pyrimidine-3-carboxamide], 0.01 to 1 µM. Take `N#CCc1cnc2c(C(=O)Nc3cnccc3OC3CCCNC3)c(N)nn2c1` (racemic) [I-O-2, (R,S)-2-amino-6-(cyanomethyl)-N-(4-(piperidin-3-yloxy)pyridin-3-yl)pyrazolo[1,5-a]pyrimidine-3-carboxamide]: the Ki was < 0.01 µM. Regarding `Nc1nn2cc(F)cnc2c1C(=O)Nc1cncc(F)c1N1CCN(C(=O)C2CC3CCCCN3C2)CC1` (stereo not shown) [I-N-203, 2-amino-6-fluoro-N-(5-fluoro-4-(4-(octahydroindolizine-2-carbonyl)piperazin-1-yl)pyridin-3-yl)pyrazolo[1,5-a]pyrimidine-3-carboxamide], the Ki lay within 0.01 to 1 µM. On the same count and under the same terms, the same measure for `CN(C)CCN1CCN(c2ccncc2NC(=O)c2c(N)nn3cc(Cl)cnc23)CC1` [I-N-49, 2-amino-6-chloro-N-(4-(4-(2-(dimethylamino)ethyl)piperazin-1-yl)pyridin-3-yl)pyrazolo[1,5-a]pyrimidine-3-carboxamide]: 0.01 to 1 µM.
